Laboratory results taken from ChEMBL document CHEMBL2074393, “Impact of Mrp2 on the biliary excretion and intestinal absorption of furosemide, probenecid, and methotrexate using Eisai hyperbilirubinemic rats” (Pharm Res, 2003).

What was measured:
[1] = molecular target: T1, ATP-binding cassette sub-family C member 2 (Rattus norvegicus, UniProt Q63120); assay: TP_TRANSPORTER: In vivo biliary excretion of SDR rat; assay type: functional, organism-based, Sprague-Dawley, Bile
[2] = molecular target: T1, ATP-binding cassette sub-family C member 2; assay: TP_TRANSPORTER: In vivo biliary excretion in vivo, biliary excretion of SDR and EHBR rat; assay type: functional, organism-based, Bile

T1 sequence (Q63120 whole entry): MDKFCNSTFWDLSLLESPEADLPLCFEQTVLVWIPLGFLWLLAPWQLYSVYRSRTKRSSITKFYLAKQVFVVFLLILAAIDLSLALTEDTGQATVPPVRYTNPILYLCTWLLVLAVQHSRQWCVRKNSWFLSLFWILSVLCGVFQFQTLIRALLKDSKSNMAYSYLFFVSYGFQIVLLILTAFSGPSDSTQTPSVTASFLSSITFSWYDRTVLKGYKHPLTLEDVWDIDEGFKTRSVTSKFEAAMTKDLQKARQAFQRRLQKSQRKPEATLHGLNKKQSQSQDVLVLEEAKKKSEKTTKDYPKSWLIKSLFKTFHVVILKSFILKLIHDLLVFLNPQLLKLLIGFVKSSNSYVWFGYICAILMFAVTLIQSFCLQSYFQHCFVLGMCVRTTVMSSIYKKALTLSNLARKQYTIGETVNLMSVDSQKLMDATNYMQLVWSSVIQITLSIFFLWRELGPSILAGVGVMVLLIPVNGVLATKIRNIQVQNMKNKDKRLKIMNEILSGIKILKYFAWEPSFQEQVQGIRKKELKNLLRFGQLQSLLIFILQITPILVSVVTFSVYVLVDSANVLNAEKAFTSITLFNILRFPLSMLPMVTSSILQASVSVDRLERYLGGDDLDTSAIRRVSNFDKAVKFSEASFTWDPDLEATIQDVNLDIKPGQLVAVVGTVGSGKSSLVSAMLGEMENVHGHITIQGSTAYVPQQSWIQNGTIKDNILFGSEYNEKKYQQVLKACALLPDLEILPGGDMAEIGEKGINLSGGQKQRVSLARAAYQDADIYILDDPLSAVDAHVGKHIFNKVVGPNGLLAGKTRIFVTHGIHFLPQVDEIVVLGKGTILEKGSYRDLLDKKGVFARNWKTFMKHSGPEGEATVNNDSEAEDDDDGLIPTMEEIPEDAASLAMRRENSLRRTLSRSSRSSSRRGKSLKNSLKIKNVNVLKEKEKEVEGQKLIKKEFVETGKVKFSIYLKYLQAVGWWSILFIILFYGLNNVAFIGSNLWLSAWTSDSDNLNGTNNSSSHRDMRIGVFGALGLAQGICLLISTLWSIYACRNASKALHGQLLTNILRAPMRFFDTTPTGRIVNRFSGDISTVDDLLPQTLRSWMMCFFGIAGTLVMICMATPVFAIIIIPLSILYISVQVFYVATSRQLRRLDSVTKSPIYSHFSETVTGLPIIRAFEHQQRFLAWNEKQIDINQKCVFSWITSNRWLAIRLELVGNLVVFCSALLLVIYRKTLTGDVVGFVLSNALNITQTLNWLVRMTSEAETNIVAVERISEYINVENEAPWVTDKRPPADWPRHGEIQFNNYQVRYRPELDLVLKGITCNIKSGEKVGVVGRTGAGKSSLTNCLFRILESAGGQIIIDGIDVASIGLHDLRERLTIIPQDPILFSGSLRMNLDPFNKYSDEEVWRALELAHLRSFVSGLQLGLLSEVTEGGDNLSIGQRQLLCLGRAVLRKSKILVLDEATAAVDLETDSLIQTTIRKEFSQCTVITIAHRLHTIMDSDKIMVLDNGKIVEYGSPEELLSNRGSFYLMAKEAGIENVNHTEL

| Activity [1] | Activity [2] | Structure (SMILES) |
| --- | --- | --- |
| substrate [] | substrate [] | CN(Cc1cnc2nc(N)nc(N)c2n1)c1ccc(C(=O)N[C@@H](CCC(=O)O)C(=O)O)cc1 [METHOTREXATE] |
| substrate [] | substrate [] | CCCN(CCC)S(=O)(=O)c1ccc(C(=O)O)cc1 [PROBENECID] |
